Data published in ChEMBL document CHEMBL1201862, “PubChem BioAssay data set” (2004).
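These data come from cells grown in 96-well plates and exposed to compound for 48 hours at five concentrations. Here, GI50 denotes the concentration required for 50% inhibition of growth.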 Active and inactive are the calls of the source. Cut-off read from the data, not from the text of the source: active = GI50 up to about 1.1 µM and inactive = higher.

Tests used:
Experiment in all cases: NCI anticancer screen, dose series, 48 h
SK-OV-3 = test system: SK-OV-3
CAKI-1 = test system: CAKI-1
SR = test system: SR
SNB-75 = test system: SNB-75
HCC 2998 = test system: HCC 2998
HCT-15 = test system: HCT-15
EKVX = test system: EKVX
A498 = test system: A498
UACC-62 = test system: UACC-62
OVCAR-5 = test system: OVCAR-5
SK-MEL-28 = test system: SK-MEL-28
IGROV-1 = test system: IGROV-1
M14 = test system: M14
OVCAR-3 = test system: OVCAR-3
NCI-H460 = test system: NCI-H460
SK-MEL-2 = test system: SK-MEL-2
NCI-H522 = test system: NCI-H522
RPMI-8226 = test system: RPMI-8226
NCI-H226 = test system: NCI-H226

Row | Structure (SMILES) | GI50 (SK-OV-3) | GI50 (CAKI-1) | GI50 (SR) | GI50 (SNB-75) | GI50 (HCC 2998) | GI50 (HCT-15) [µM] | GI50 (EKVX) | GI50 (A498) | GI50 (UACC-62) | GI50 (OVCAR-5) | GI50 (SK-MEL-28) | GI50 (IGROV-1) | GI50 (M14) | GI50 (OVCAR-3) | GI50 (NCI-H460) | GI50 (SK-MEL-2) | GI50 (NCI-H522) | GI50 (RPMI-8226) | GI50 (NCI-H226)
1 | [N-]=[N+]=NC1(c2ccccc2)C(=O)C(Cl)=C(c2ccccc2)N(c2ccccc2)C1=O (stereo not given) | 31.3 µM (inactive) | > 100 µM (inactive) | 65.5 µM (inactive) | > 100 µM (inactive) | > 100 µM (inactive) | > 100 | > 100 µM (inactive) | > 100 µM (inactive) | > 100 µM (inactive) | > 100 µM (inactive) | > 100 µM (inactive) | > 100 µM (inactive) | > 100 µM (inactive) | 65.3 µM (inactive) | > 100 µM (inactive) | > 100 µM (inactive) | 41.2 µM (inactive) |  | 
2 | CC(C)(C)NNC(=O)CCn1[nH]c(=O)c(Cl)c(Cl)c1=O | > 100 µM (inactive) | > 100 µM (inactive) |  | > 100 µM (inactive) | > 100 µM (inactive) | > 100 | > 100 µM (inactive) | 10.7 µM (inactive) | > 100 µM (inactive) | > 100 µM (inactive) | > 100 µM (inactive) | > 100 µM (inactive) | > 100 µM (inactive) | > 100 µM (inactive) | > 100 µM (inactive) | > 100 µM (inactive) | > 100 µM (inactive) | > 100 µM (inactive) | > 100 µM (inactive)
3 | Cc1nc(=O)[nH]c2[nH][nH]c(=O)c12 | > 100 µM (inactive) | > 100 µM (inactive) | > 100 µM (inactive) |  |  | > 100 | > 100 µM (inactive) |  | > 100 µM (inactive) | > 100 µM (inactive) | > 100 µM (inactive) | > 100 µM (inactive) | > 100 µM (inactive) | > 100 µM (inactive) | > 100 µM (inactive) | > 100 µM (inactive) | > 100 µM (inactive) | > 100 µM (inactive) | > 100 µM (inactive)
4 | O=C1NC2(CCCC2)C(=O)C12CCCC2 | > 100 µM (inactive) | > 100 µM (inactive) | > 100 µM (inactive) | > 100 µM (inactive) |  | > 100 | > 100 µM (inactive) | > 100 µM (inactive) | > 100 µM (inactive) | > 100 µM (inactive) | > 100 µM (inactive) | > 100 µM (inactive) | > 100 µM (inactive) | > 100 µM (inactive) | > 100 µM (inactive) | > 100 µM (inactive) | > 100 µM (inactive) | > 100 µM (inactive) | 
5 | FC(F)(F)C1(Cl)C(c2ccccc2)=C1c1ccccc1 | 18.2 µM (inactive) | 12.6 µM (inactive) | 22.3 µM (inactive) | > 10 µM (inactive) | 17.7 µM (inactive) | 14.3 | 16.1 µM (inactive) |  | 14 µM (inactive) | 17.4 µM (inactive) | 14.9 µM (inactive) | 15.5 µM (inactive) | 12.8 µM (inactive) | 17.2 µM (inactive) | 16 µM (inactive) | 15 µM (inactive) |  | 29.7 µM (inactive) | 15.5 µM (inactive)
6 | COc1cc(C2c3cc4c(cc3[C@@H](Nc3ccccc3)C3CO[C@@H](OC)[C@H]23)OCO4)cc(OC)c1O (stereo not given in full) | 9.06 µM (inactive) |  | 1.95 µM (inactive) | 7.41 µM (inactive) | 6.9 µM (inactive) | 3.61 | 20.7 µM (inactive) |  |  | 6.07 µM (inactive) | 19.6 µM (inactive) | 20.9 µM (inactive) | 10.4 µM (inactive) |  | 1.11 µM (active) |  | 6.58 µM (inactive) | 3.01 µM (inactive) | 
7 | CN(C(=O)/C=C/c1ccccc1)C1C2CN3CCC(O2)C13 (stereo not given) | > 100 µM (inactive) | > 100 µM (inactive) |  | > 100 µM (inactive) | > 100 µM (inactive) | > 100 | > 100 µM (inactive) | > 100 µM (inactive) | > 100 µM (inactive) | > 100 µM (inactive) | > 100 µM (inactive) | > 100 µM (inactive) | > 100 µM (inactive) | > 100 µM (inactive) | > 100 µM (inactive) | > 100 µM (inactive) | > 100 µM (inactive) |  | > 100 µM (inactive)
8 | N#Cc1ccccc1Sc1ccccc1N | > 100 µM (inactive) | 36 µM (inactive) | 72.6 µM (inactive) |  |  |  | 77.1 µM (inactive) | > 100 µM (inactive) | 50.1 µM (inactive) | 36.1 µM (inactive) | > 100 µM (inactive) | 31.7 µM (inactive) |  |  | > 100 µM (inactive) | > 100 µM (inactive) |  |  | 13 µM (inactive)
9 | COc1cc2c(cc1OC)-c1c3cc(O)ccc3nn[n+]1CC2 | > 100 µM (inactive) |  |  | > 100 µM (inactive) | > 100 µM (inactive) |  | > 100 µM (inactive) |  | > 100 µM (inactive) |  | > 100 µM (inactive) | > 100 µM (inactive) | > 100 µM (inactive) | > 100 µM (inactive) | > 100 µM (inactive) |  | > 100 µM (inactive) | > 100 µM (inactive) | > 100 µM (inactive)
